Reference: patent US20120065203A1, “Methods of Reducing Serum Glucose and Triglyceride Levels and for Inhibiting Angiogenesis Using Substituted Indolealkanoic Acids” (The Institute for Pharmaceutical Discovery, LLC, priority 1998, published 2012)
Where two headings read alike, the source gives them in different places.

How the values were obtained:
[1] = system: STZ treated diabetic minipigs; test: Wound healing in STZ treated diabetic minipigs; type: in vivo, minipig; details: STZ diabetic minipigs with wounds, compared with untreated controls
From the text: These animals are compared with control STZ diabetic minipigs also having wounds but that are not treated with the compound.

diabetic (db/db) mice = details: for mean percent change in glucose (lowering): after four weeks
Description: The mice are obese, extremely hyperglycemic and also hyperinsulinemic.
Male db/db mice (8 weeks old) were obtained from Jackson Laboratories and were allowed to acclimate for 1 week before the experiment commenced. A sample of blood was collected from the tail after which plasma glucose was isolated by centrifigation and the glucose concentration was measured in the plasma enzymatically on the COBAS automated clinical_analyzer equipped with a glucose kit that utilized hexokinas to quantitate the amount of glucose in a sample (Roche Diagnostic Systems, kit #47382). Mice with the lowest plasma glucose values were removed from the study and the remaining mice were randomized according to their individual plasma glucose values into 3 treatment groups (n=12 per group), control untreated db/db mice, 100 mg/kg/d compound treated db/db mice and 300_mg/kg/d compound treated db/db mice.
Treatment with the compound was carried out for 4 weeks during which time blood glucose levels were measured weekly from the tail using the One Touch II blood glucose meter (Lifescan, Inc). The blood glucose values of mice in the compound treated groups was compared to the blood glucose values of mice from the control untreated group by an analysis of variance followed by Dunett's Comparison Test (one-tailed).

[2] = system: streptozotocin-induced diabetic rats; details: STZ diabetic rats, 10 mg/kg daily by gavage, listed as test compound
Description: Diabetes is induced in animals as follows: male Sprague-Dawley rats (150 g), supplied by Harlan Teklad (Madison, Wis.), are allowed to acclimate for 1 week and water is supplied ad libitum. […] STZ, 40 mg/kg, is prepared in 0.03 M citrate buffer, pH 4.5 and administered intraperitoneally after a 24-hr fast. Control animals receive citrate buffer.
Two hours after STZ injection, food is returned. Two days following STZ injection, blood glucose is measured and animals with <300 mg/dL are eliminated. Animals with blood glucose levels ≧300 mg/dL are randomized into diabetic control and treated groups.
In all, three groups of animals are monitored and compared. The groups comprise a (nondiabetic) control group (n=5); an untreated diabetic (control) group (n=7); and treated diabetic group (n=7). […] The nondiabetic and diabetic control groups are administered vehicle.
After the final dose (Day 8), all groups of animals are fasted for 4 hours and anesthetized with CO2, and blood is collected by cardiac puncture into EDTA tubes. The plasma is separated from the red blood cells by centrifugation. Plasma triglyceride levels are quantitated on an automated COBAS chemistry system utilizing the Roche reagent for Triglycerides (Cat #44119). This assay is a standard spectrophotometric enzyme assay that uses a Trinder reaction to measure the final product (Trinder, P., Ann Clin Biochem 6: […], 1969). […]

[3] = biological target: human aldose reductase (hALR2) (Homo sapiens, UniProt P15121); test: Inhibition of human aldose reductase (hALR2); type: biochemical
Description: Representative compounds of the invention were tested for their potency, selectivity and efficacy as inhibitors of human aldose reductase.

From the text for rat aortic ring: Rats (less than 6 weeks old, approx 150 grams) are individually sacrificed via carbon dioxide asphyxiation. The abdomen and thorax are opened along the midline with scissors using known sterile techniques. The animals are placed recumbent on their right side, to allow displacement of the viscera. The abdominal and thoracic sections of the aorta are carefully separated from the dorsum by dissection along the longitudinal axis of the aorta. The isolated aorta is placed in a petri dish containing sterile, ice cold Hanks' balanced salt solution (Gibco BRL-Life Technologies, Rockville, Md.) for further micro-dissection under a dissecting microscope. The lumenal content of the aorta is dislodged by injection with Hanks, balanced salt solution via a syringe. Adherent adipose, loose connective tissue and segments of intercostal arteries are trimmed from the exterior of the aorta using sterile microsurgical instruments. The aorta is transferred to a clean petri dish containing fresh Hanks' balanced salt solution and the entire aorta is sectioned into 1 to 2 mm thick rings. The two end rings and any other rings which appear damaged are discarded. The aorta is maintained submerged in Hanks' balanced salt solution on ice while plating onto a 48-well plate.
Using a 48-well tissue culture plate, which is chilled on ice, in a tissue culture hood a 120 microliters of thawed Matrigel® (Becton Dickinson Labware, Bedford, Mass.) is plated onto each well using a sterile pipet tip. The Matrigel® is solidified by placing the culture plate for 30 minutes in a 37° C. humidified tissue culture incubator in the presence of 5% CO2. A single aortic ring is placed on edge, with one of its two cut surfaces resting on the Matrigel®, at the center of each well using a sterile curved forcep. The layout of the culture plate is such that the rings from multiple animals are placed in a single column on the plate. In this fashion, the experimental results represent observations based on six animals (n=6). […]

Row | Structure (SMILES) | degree of wound healing [1] | Blood glucose (diabetic (db/db) mice; 100 mg/kg/d in diet, Week 0, mean ± SD) | Blood glucose (diabetic (db/db) mice; 100 mg/kg/d in diet, Week 2, mean ± SD) | Blood glucose (diabetic (db/db) mice; 100 mg/kg/d in diet, Week 4, mean ± SD) | mean percent change in glucose (lowering) (diabetic (db/db) mice; 100 mg/kg/d) | Blood glucose (diabetic (db/db) mice; 300 mg/kg/d in diet, Week 0, mean ± SD) | Blood glucose (diabetic (db/db) mice; 300 mg/kg/d in diet, Week 2, mean ± SD) | mean percent change in glucose (lowering) (diabetic (db/db) mice; 300 mg/kg/d) | Linear Microvascular Growth (rat aortic ring; Intervention (Days 4-6), compound only on days 4-6, mean ± SD) | Linear Microvascular Growth (rat aortic ring; Prevention (Days 1-6), 50 micromolar, mean ± SD) | Linear Microvascular Growth (rat aortic ring; Removal: 50 micromolar days 1-3, compound removed days 4-6, mean ± SD) | Triglyceride lowering compared to diabetic [2] | IC50 [3]
1 | Cc1c(Cc2nc3c(F)c(F)cc(F)c3s2)c2ccccc2n1CC(=O)O [Example 1, 2-methyl-3-(4,5,7-trifluorobenzothiazol-2-yl)methyl-indole-N-acetic acid] | significant increase in the degree of wound healing | 323 ± 79 mg/dL | 284 ± 75 mg/dL | 303 ± 79 mg/dL | 12% | 313 ± 52 mg/dL | 240 ± 85 mg/dL | 40% | 1.97 ± 0.66, n = 5 mm | 1.46 ± 0.48, n = 6 mm | 2.31 ± 0.71, n = 5 mm | 68% | 
2 | O=C(O)Cn1cc(Cc2nc3ccc(F)cc3s2)c2ccccc21 [Example 24, 3-[6-Fluorbenzothiazole-2-yl]methyl-indole-N-acetic Acid] |  |  |  |  |  |  |  |  |  |  |  |  | 1.04 µM
